# Patent US20200390100A1, “SUBSTITUTED N-HETEROCYCLYL- AND N-HETEROARYL-TETRAHYDROPYRIMIDINONES AND THE SALTS THEREOF, AND THE USE OF SAME AS HERBICIDAL ACTIVE SUBSTANCES” (Bayer Aktiengesellschaft, priority 2017, published 2020)
# Legend:
# Type in all cases: in vivo
# [1] = test system: Abutilon theophrasti; test: Post-emergence herbicidal action, greenhouse, 320 g/ha; conditions: application rate 320 g/ha, rated visually after about 3 weeks vs untreated controls
# Method in brief: (§1)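 Plants treated post-emergence at the one-leaf stage, 2 to 3 weeks after sowing in sandy loam, with WP or EC formulations plus 0.5% additive at 320 g/ha. Visual rating about 3 weeks later versus untreated controls (100% = dead, 0% = like control).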
# [2] = test system: Amaranthus retroflexus; test: as above; conditions: application rate 320 g/ha, rated visually after about 3 weeks vs untreated controls
# Method in brief: as §1
# [3] = test system: Hordeum murinum; test: as above; conditions: application rate 320 g/ha, rated visually after about 3 weeks vs untreated controls
# Method in brief: as §1
# [4] = test system: Matricaria inodora; test: as above; conditions: application rate 320 g/ha, rated visually after about 3 weeks vs untreated controls
# Method in brief: as §1
# [5] = test system: Pharbitis purpurea; test: as above; conditions: application rate 320 g/ha, rated visually after about 3 weeks vs untreated controls
# Method in brief: as §1
# [6] = test system: Polygonum convolvulus; test: as above; conditions: application rate 320 g/ha, rated visually after about 3 weeks vs untreated controls
# Method in brief: as §1
# [7] = test system: Setaria viridis; test: as above; conditions: application rate 320 g/ha, rated visually after about 3 weeks vs untreated controls
# Method in brief: as §1
# [8] = test system: Stellaria media; test: as above; conditions: application rate 320 g/ha, rated visually after about 3 weeks vs untreated controls
# Method in brief: as §1
# [9] = test system: Viola tricolor; test: as above; conditions: application rate 320 g/ha, rated visually after about 3 weeks vs untreated controls
# Method in brief: as §1
# [10] = test system: Abutilon theophrasti; test: Pre-emergence herbicidal action, greenhouse, 320 g/ha; conditions: application rate 320 g/ha, scored visually after about 3 weeks vs untreated controls
# Method in brief: (§2)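 Visual % damage versus untreated pots was read about 3 weeks after treatment, where 0% means growth as in controls and 100% means dead plants. Compounds were applied as WP or EC in water plus 0.5% additive onto the covering soil over freshly sown seeds.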
# [11] = test system: Alopecurus myosuroides; test: as above; conditions: application rate 320 g/ha, scored visually after about 3 weeks vs untreated controls
# Method in brief: as §2
# [12] = test system: Amaranthus retroflexus; test: as above; conditions: application rate 320 g/ha, scored visually after about 3 weeks vs untreated controls
# Method in brief: as §2
# [13] = test system: Avena fatua; test: as above; conditions: application rate 320 g/ha, scored visually after about 3 weeks vs untreated controls
# Method in brief: as §2
# [14] = test system: Echinochloa crus-galli; test: as above; conditions: application rate 320 g/ha, scored visually after about 3 weeks vs untreated controls
# Method in brief: as §2
# [15] = test system: Hordeum murinum; test: as above; conditions: application rate 320 g/ha, Table B14
# Method in brief: as §2
# [16] = test system: Matricaria inodora; test: as above; conditions: application rate 320 g/ha, scored visually after about 3 weeks vs untreated controls
# Method in brief: as §2
# [17] = test system: Pharbitis purpurea; test: as above; conditions: application rate 320 g/ha, Table B12
# Method in brief: as §2
# [18] = test system: Polygonum convolvulus; test: as above; conditions: application rate 320 g/ha, scored visually after about 3 weeks vs untreated controls
# Method in brief: as §2
# [19] = test system: Setaria viridis; test: as above; conditions: application rate 320 g/ha, Table B11
# Method in brief: as §2
# [20] = test system: Stellaria media; test: as above; conditions: application rate 320 g/ha, scored visually after about 3 weeks vs untreated controls
# Method in brief: as §2
# [21] = test system: Veronica persica; test: as above; conditions: application rate 320 g/ha, Table B13
# Method in brief: as §2
# [22] = test system: Viola tricolor; test: as above; conditions: application rate 320 g/ha, Table B8
# Method in brief: as §2
# [23] = test system: Digitaria sanguinalis; test: Post-emergence herbicidal action, greenhouse, 320 g/ha; conditions: application rate 320 g/ha, rated visually after about 3 weeks vs untreated controls
# Method in brief: as §1
# [24] = test system: Digitaria sanguinalis; test: Pre-emergence herbicidal action, greenhouse, 320 g/ha; conditions: application rate 320 g/ha, Table B9
# Method in brief: as §2
# [25] = test system: Amaranthus retroflexus; test: Herbicidal post-emergence action (Part 2), 1280 g/ha; conditions: application rate 1280 g/ha, rated visually after about 3 weeks, Table C5
# Method in brief: (§3)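 Percent activity (100% = plants dead, 0% = as untreated) scored visually about 3 weeks after spraying. Plants were sown in sandy loam, grown in greenhouse and sprayed at one-leaf stage, 2-3 weeks post-sowing, with aqueous WP/EC preparations containing 0.5% additive at 600 L/ha.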
# [26] = test system: Echinochloa crus-galli; test: as above; conditions: post-emergence (Part 2), application rate 1280 g/ha, rated visually after about 3 weeks vs untreated controls
# Method in brief: as §3
# [27] = test system: Matricaria inodora; test: as above; conditions: application rate 1280 g/ha, rated visually after about 3 weeks, Table C6
# Method in brief: as §3
# [28] = test system: Stellaria media; test: as above; conditions: application rate 1280 g/ha, rated visually after about 3 weeks, Table C7
# Method in brief: as §3
# [29] = test system: Amaranthus retroflexus; test: Herbicidal pre-emergence action (Part 2), 1280 g/ha; conditions: application rate 1280 g/ha, scored visually after about 3 weeks, Table D6
# Method in brief: (§4)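 Visual percent activity relative to untreated plants (0% = like control, 100% = plants died) was rated about 3 weeks after treatment. Compounds formulated as WP or EC were applied at 1280 g/ha onto covering soil over freshly sown weeds, in 600 L/ha spray water with 0.5% additive, with greenhouse growth.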
# [30] = test system: Echinochloa crus-galli; test: as above; conditions: application rate 1280 g/ha, scored visually after about 3 weeks, Table D1
# Method in brief: as §4
# [31] = test system: Matricaria inodora; test: as above; conditions: application rate 1280 g/ha, scored visually after about 3 weeks, Table D7
# Method in brief: as §4
# [32] = test system: Poa annua; test: as above; conditions: application rate 1280 g/ha, scored visually after about 3 weeks, Table D3
# Method in brief: as §4
# [33] = test system: Stellaria media; test: as above; conditions: application rate 1280 g/ha, scored visually after about 3 weeks, Table D8
# Method in brief: as §4
Compound,Hordeum murinum (efficacy in %) [3] [%],Pharbitis purpurea (efficacy in %) [5] [%],Abutilon theophrasti (efficacy in %) [10] [%],Alopecurus myosuroides (efficacy in %) [11] [%],Amaranthus retroflexus (efficacy in %) [12] [%],Avena fatua (efficacy in %) [13] [%],Echinochloa crus-galli (efficacy in %) [14] [%],Hordeum murinum (efficacy in %) [15] [%],Matricaria inodora (efficacy in %) [16] [%],Polygonum convolvulus (efficacy in %) [18] [%],Setaria viridis (efficacy in %) [19] [%],Stellaria media (efficacy in %) [20] [%],Viola tricolor (efficacy in %) [22] [%],other results
CN1CCC(OC(=O)C(C)(C)C)N(c2cc(C(C)(C)C)on2)C1=O (stereo not shown) [I.6-162],90,90,100,90,100,90,100,90,100,90,100,100,100,Abutilon theophrasti (efficacy in %) [1]: 100%; Amaranthus retroflexus (efficacy in %) [2]: 80%; Matricaria inodora (efficacy in %) [4]: 100%; Polygonum convolvulus (efficacy in %) [6]: 100%; Setaria viridis (efficacy in %) [7]: 100%; Stellaria media (efficacy in %) [8]: 100%; Viola tricolor (efficacy in %) [9]: 100%; Pharbitis purpurea (efficacy in %) [17]: 90%; Veronica persica (efficacy in %) [21]: 100%
CC(=O)OC1CC(C)N(C)C(=O)N1c1cc(C(C)(C)C)on1 (mixture of isomers) [I.42-162],90,100,100,90,100,80,80,90,100,90,100,100,90,Digitaria sanguinalis (efficacy in %) [23]: 100%; Digitaria sanguinalis (efficacy in %) [24]: 80%; Amaranthus retroflexus [25]: 100%; Echinochloa crus-galli [26]: 100%; Matricaria inodora [27]: 100%; Stellaria media [28]: 100%; Amaranthus retroflexus [29]: 100%; Echinochloa crus-galli [30]: 100%; Matricaria inodora [31]: 100%; Poa Annua [32]: 100%; Stellaria media [33]: 100%
